pEC50, pIC50: −log10 of the molar value.
Legend:
[1] = system: phosphorylated STAT1 protein levels in B16-F10 cells; assay: Phospho-STAT1 (Tyr701) HTRF assay in IFN-gamma treated B16-F10 cells; format: cell-based; conditions: mouse IFN-gamma 100 ng/mL, 1 hour, read-out: pSTAT1 HTRF B16 EC50
Procedure: B16-F10 cells (ATCC, Manassas, VA, #CRL-6475) were cultured in DMEM growth medium (ThermoFisher Scientific, Waltham, MA, #11995-040) supplemented with 10% heat inactivated FBS (ThermoFisher Scientific, #16140-071) and 1% pen/strep (ThermoFisher Scientific, #15140-122). The cells were seeded into a white opaque 384-well tissue culture treated microplate (PerkinElmer, Waltham, MA, #6007688) at a density of 10,000 cells/well in 20 uL total volume and incubated overnight at 37 C and 5% CO2. 30 nL of compounds dissolved in DMSO were then transferred from a source plate into target wells with the Echo650 acoustic liquid handler (Beckman Coulter, Indianapolis, IN). Negative control wells received 30 nL of DMSO only (0.15% final concentration). Plates were returned to the incubator for 1 hour and then cells treated with either 5 uL of growth medium or 5 uL of growth medium containing 500 ng/mL of recombinant mouse IFN-gamma protein (R&D Systems, Minneapolis, MN, #485-MI/CF, 100 ng/mL final concentration) using the Assist automated pipetting platform (INTEGRA Biosciences, Hudson, NH). Plates were incubated at 37 C for 1 hour and assayed for phosphorylated STAT1 protein levels with the phospho-STAT1 (Tyr701) HTRF kit (Cisbio, Bedford, MA, #63ADK026PEH) according to manufacturer's instructions.

PTPN2 enzyme = molecular target: T1, PTPN2 enzyme (Homo sapiens, UniProt P17706); assay: PhosphoSens PTPN2 biochemical assay; conditions: substrate AQT0264 20 μM, room temperature; read-out: PTPN2 BCHEM IC50
T1 sequence (P17706 1-415): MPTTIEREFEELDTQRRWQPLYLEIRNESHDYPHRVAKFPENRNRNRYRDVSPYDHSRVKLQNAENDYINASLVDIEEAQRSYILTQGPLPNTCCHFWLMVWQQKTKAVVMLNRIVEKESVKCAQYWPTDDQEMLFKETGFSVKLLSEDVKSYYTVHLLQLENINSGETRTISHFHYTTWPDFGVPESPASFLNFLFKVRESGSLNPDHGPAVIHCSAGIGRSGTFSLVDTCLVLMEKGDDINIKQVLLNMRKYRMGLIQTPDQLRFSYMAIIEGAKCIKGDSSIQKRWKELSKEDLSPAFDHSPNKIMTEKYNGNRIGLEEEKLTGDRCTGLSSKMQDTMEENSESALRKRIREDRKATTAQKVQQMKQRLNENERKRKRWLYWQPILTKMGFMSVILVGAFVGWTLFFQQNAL
Procedure: A PhosphoSens® kinase assay was performed as described by the vendor (AssayQuant Technologies, Marlborough, MA). Briefly, 1000×solutions of compounds were prepared in DMSO via serial dilution of the 10 mM DMSO stocks using 3-fold intervals in a 384-well reagent plate. 50 nL of the compound dilution series was then added to the corresponding wells of a 384-well assay plate. […] of 1.25×substrate (AQT0264) in 1× assay buffer (50 mM HEPES pH 7.5, 500 μM EGTA, […] MgCl2, 0.01% Brij-35, 1% Glycerol, 1 mM DTT, and 0.2 mg/mL BSA) was transferred to each well of the assay plate to achieve a final substrate concentration of 20 μM. Finally, […] of 5×PTPN2 enzyme stock was added to each well of the assay plate for a final enzyme concentration of […]. Reaction progress curves were collected by sampling fluorescence intensity at the excitation wavelength 360 nm (λex360) and emission wavelength 480 nm (λem480) every 71 seconds for one hour using a Synergy H4 plate reader (BioTek Instruments/Agilent Technologies, Winooski, VT) at room temperature.

| Structure (SMILES) | pEC50 [1] | pIC50 (PTPN2 enzyme) |
| --- | --- | --- |
| CC(C)CCN1CCN(Cc2ccc(O)c(N3CC(=O)NS3(=O)=O)c2F)CC1 [EXAMPLE 104, 5-[2-fluoro-6-hydroxy-3-[(4-isopentylpiperazin-1-yl)methyl]phenyl]-1,1-dioxo-1,2,5-thiadiazolidin-3-one] | ≤ 4.82 |  |
| CN1CCCC(c2cc(O)c(N3CC(=O)NS3(=O)=O)c(F)c2)C1 (stereo not shown) [EXAMPLE 3, 5-(2-fluoro-6-hydroxy-4-(1-methylpiperidin-3-yl)phenyl)-1,2,5-thiadiazolidin-3-one 1,1-dioxide] |  | 5.33 |
| CN(Cc1cc(O)c(N2CC(=O)NS2(=O)=O)c(F)c1)C1CCC(C)(C)CC1 [EXAMPLE 77, 5-[4-[[(4,4-dimethylcyclohexyl)-methyl-amino]methyl]-2-fluoro-6-hydroxy-phenyl]-1,1-dioxo-1,2,5-thiadiazolidin-3-one] | ≤ 4.82 |  |
| CC(=O)N1CCN(Cc2cc(O)c(N3CC(=O)NS3(=O)=O)c(F)c2)CC1 [EXAMPLE 38, 5-(4-((4-acetylpiperazin-1-yl)methyl)-2-fluoro-6-hydroxyphenyl)-1,2,5-thiadiazolidin-3-one 1,1-dioxide] |  | 7.08 |
| CCCCC1CCN(Cc2cc(O)c(N3CC(=O)NS3(=O)=O)c(F)c2)CC1 [EXAMPLE 57, 5-[4-[(4-butyl-1-piperidyl)methyl]-2-fluoro-6-hydroxy-phenyl]-1,1-dioxo-1,2,5-thiadiazolidin-3-one] | 4.96 | 6.42 |
| CCCN(Cc1cc(O)c(N2CC(=O)NS2(=O)=O)c(F)c1)CC1CCC1 [EXAMPLE 78, 5-[4-[[cyclobutylmethyl(propyl)amino]methyl]-2-fluoro-6-hydroxy-phenyl]-1,1-dioxo-1,2,5-thiadiazolidin-3-one] | ≤ 4.82 | 6.09 |
| O=C1CN(c2c(O)cc(CNc3cc(C4CC4)ccn3)cc2F)S(=O)(=O)N1 [EXAMPLE 82, 5-[4-[[(4-cyclopropyl-2-pyridyl)amino]methyl]-2-fluoro-6-hydroxy-phenyl]-1,1-dioxo-1,2,5-thiadiazolidin-3-one] | 6.71 | 8.00 |
| CC(=O)N1CCC[C@@H](NCc2cc(O)c(N3CC(=O)NS3(=O)=O)c(F)c2)C1 [EXAMPLE 68, 5-[4-[[[(3R)-1-acetyl-3-piperidyl]amino]methyl]-2-fluoro-6-hydroxy-phenyl]-1,1-dioxo-1,2,5-thiadiazolidin-3-one] | 5.18 | 7.49 |
| COCCC1CCN(Cc2cc(O)c(N3CC(=O)NS3(=O)=O)c(F)c2)CC1 [EXAMPLE 55, 5-[2-fluoro-6-hydroxy-4-[[4-(2-methoxyethyl)-1-piperidyl]methyl]phenyl]-1,1-dioxo-1,2,5-thiadiazolidin-3-one] | 4.95 | 6.40 |
| CC(C)CCN1CCC(c2cc(O)c(N3CC(=O)NS3(=O)=O)c(F)c2)CC1 [EXAMPLE 6, 5-[2-fluoro-6-hydroxy-4-(1-isopentyl-4-piperidyl)phenyl]-1,1-dioxo-1,2,5-thiadiazolidin-3-one] |  | 5.56 |
| CN(C)C1CCN(Cc2ccc(O)c(N3CC(=O)NS3(=O)=O)c2F)CC1 [EXAMPLE 102, 5-(3-((4-(dimethylamino)piperidin-1-yl)methyl)-2-fluoro-6-hydroxyphenyl)-1,2,5-thiadiazolidin-3-one 1,1-dioxide] | ≤ 4.82 |  |
| O=C1CN(c2c(O)cc(NC3CCNCC3)cc2F)S(=O)(=O)N1 [EXAMPLE 88, 5-(2-fluoro-6-hydroxy-4-(piperidin-4-ylamino)phenyl)-1,2,5-thiadiazolidin-3-one 1,1-dioxide] |  | 5.92 |
| O=C1CN(c2c(O)ccc(CN3CCC(F)CC3)c2F)S(=O)(=O)N1 [EXAMPLE 98, 5-(2-fluoro-3-((4-fluoropiperidin-1-yl)methyl)-6-hydroxyphenyl)-1,2,5-thiadiazolidin-3-one 1,1-dioxide] | ≤ 4.82 |  |
| O=C1CN(c2c(O)cc(C3CCNCC3)cc2F)S(=O)(=O)N1 [EXAMPLE 2, 5-[2-fluoro-6-hydroxy-4-(4-piperidyl)phenyl]-1,1-dioxo-1,2,5-thiadiazolidin-3-one] |  | 5.89 |
